From article PMC6941124 (International Journal of Molecular Sciences, 2019)
Where a chain is given by its changes, count along the chain named. Several values for one entry are separate records, joined by “and”; a condition that tells them apart may be missing. Identical values can stand only once.

Columns and labels:
[1] = test system: HeLa CK1δ−/− cells; experiment: MTT viability assay, HeLa CK1δ−/− cells; type: cell-based; conditions: 48 h
Procedure: (§1) Parental HeLa cells, as well as HeLa CSNK1D knock-out cells (CK1δ^−/−) (generated by CRISP/Cas9 technology and provided by EDIGENE, Beijing, China), were cultured in Dulbecco’s Modified Eagle medium (DMEM). HCT-116 and HT-29 colon cancer cells were cultured in McCoy’s 5A medium whereas SW480 and SW620 colon cancer cells were cultured in Leibovitz’s L-15 medium. All media were supplemented with 10% (v/v) fetal bovine serum (FBS), 100 units/mL penicillin, and 100 µg/mL streptomycin. DMEM-based medium for the culture of HeLa CSNK1D knock-out cells was additionally supplemented with 1 μg/mL puromycin. Cell cultures were maintained at 37 °C in a humidified atmosphere containing 5% CO2. Cells were transfected using Effectene transfection reagent (Qiagen, Hilden, Germany) according to the manufacturer’s instructions. For selection of stably transfected clones, transfected cells were grown in selective medium, containing 0.6 mg/mL of G-418 (Calbiochem-Merck Millipore, Darmstadt, Germany).
(§2) For performing MTT viability assays, cells were seeded in a 96-well plate (5 × 10^4 cells/well for HeLa cells (parental, CK1δ^−/−, or CK1δ^−/− cells stably transfected with wild type or mutant CK1δ), HCT-116, and HT-29 cells or 7.5 × 10^4 cell/well for SW480 and SW620 cells). After 24 h, old medium was replaced with fresh medium containing either the small molecule of interest or DMSO as control. After 48 h of treatment, 10 μL MTT (5 mg/mL) was added and incubated at 37 °C for 4 h. The medium was then gently removed and 100 μL of acidic isopropanol was added (90% (v/v) isopropanol, 10% (v/v) 1 N HCl). Cell culture plates were then shaken for 30 min at room temperature. Absorbance was measured at 570 nm with TriStar^2 LB942 Microplate Reader (Berthold Technologies, Bad Wildbad, Germany) and data analysis was performed using GraphPad Prism 6 (GraphPad Software, San Diego, CA, USA).

[2] = test system: HeLa CK1δ−/− cells expressing CK1δ R168H; experiment: MTT viability assay, HeLa CK1δ−/− cells expressing CK1δ R168H; type: cell-based; conditions: 48 h
Procedure: as §1, with “For selection of stably transfected clones, transfected cells were grown in selective medium, containing 0.6 mg/mL of G-418 (Calbiochem-Merck Millipore, Darmstadt, Germany).” left out
(§3) For performing MTT viability assays, cells were seeded in a 96-well plate (5 × 10^4 cells/well for HeLa cells (parental, CK1δ^−/−, or CK1δ^−/− cells stably transfected with wild type or mutant CK1δ), HCT-116, and HT-29 cells or 7.5 × 10^4 cell/well for SW480 and SW620 cells). […] Absorbance was measured at 570 nm with TriStar^2 LB942 Microplate Reader (Berthold Technologies, Bad Wildbad, Germany) and data analysis was performed using GraphPad Prism 6 (GraphPad Software, San Diego, CA, USA).

[3] = molecular target: CK1δ wild type (GST-CK1δ) (Homo sapiens, UniProt P48730); experiment: in vitro kinase assay, GST-CK1δ wild type; type: biochemical; conditions: for Kinase activity of CK1δ in presence of inhibitor: 10 µM inhibitor, initial screening; for IC50: dilution series 0.005−10 µM, mean ± standard error, triplicate
Sequence of CK1δ wild type (GST-CK1δ) (P48730 whole entry, the tested form may be a part): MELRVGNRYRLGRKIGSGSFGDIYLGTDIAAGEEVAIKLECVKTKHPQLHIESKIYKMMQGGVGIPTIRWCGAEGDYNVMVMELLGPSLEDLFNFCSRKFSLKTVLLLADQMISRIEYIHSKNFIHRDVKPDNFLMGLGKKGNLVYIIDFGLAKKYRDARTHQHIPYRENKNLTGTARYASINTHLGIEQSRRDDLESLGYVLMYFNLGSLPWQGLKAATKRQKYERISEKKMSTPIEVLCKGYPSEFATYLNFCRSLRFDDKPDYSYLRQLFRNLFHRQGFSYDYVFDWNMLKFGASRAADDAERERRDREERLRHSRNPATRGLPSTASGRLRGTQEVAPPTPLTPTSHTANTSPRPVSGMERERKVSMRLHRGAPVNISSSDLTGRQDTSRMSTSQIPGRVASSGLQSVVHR
Procedure: (§4) Overexpression and purification of GST-CK1δ fusion proteins, either wild type or mutant, were performed as described previously.
(§5) Each kinase assay reaction was performed in kinase buffer (25 mM Tris-HCl (pH 7.5), 10 μM ATP, 10 mM MgCl2, 100 μM EDTA) in presence of purified GST-CK1δ kinase as source of enzyme (either wild type or mutant), an assay-specific substrate (α-casein, GST-p53^1−64, or GST-β-catenin^1−181), and radiolabeled ATP (2 μCi [γ-^32P]-ATP). For performing Michaelis–Menten analysis increasing substrate concentrations were used (α-casein: 0.39−25 μM; GST-p53^1−64: 0.09−1.87 μM; GST-β-catenin^1−181: 0.07−1.32 μM). For biological evaluation of small molecule inhibitors (SMIs), each inhibitor compound was either tested at 10 μM concentration for initial screening or by using a dilution series (0.005−10 µM) for determination of IC50 values. DMSO was used as control. Reactions were incubated for 30 min at 30 °C and reactions were stopped using 5x SDS-loading buffer (250 mM Tris-HCl [pH 6.8], 25% (v/v) β-mercaptoethanol (MSH), 50% (v/v) glycerol, 10% (w/v) SDS, 0.5% (w/v) bromphenol blue). Subsequently, samples were separated by SDS-PAGE using 12.5% acrylamide gels, stained with Coomassie, and phosphorylated substrates were visualized on X-ray film. Incorporation of radiolabeled phosphate was quantified by scintillation counting of Coomassie-stained substrate bands. Defined dilutions of the reaction master mix were counted as well in order to convert results obtained as counts per minute (CPM) to units of transferred phosphate in pmol/min. Michaelis–Menten analysis was performed using GraphPad Prism 6 (GraphPad Software, San Diego, CA, USA).

[4] = test system: HeLa CK1δ+/+ cells (HeLa CK1δ−/− stably transfected with CK1δ); experiment: MTT viability assay, HeLa CK1δ+/+ cells; type: cell-based; conditions: 48 h
Procedure: as §1, §2

[5] = molecular target: T1, CK1δ R168H (Homo sapiens, UniProt P48730, R168H); experiment: in vitro kinase assay, CK1δ mutant R168H; type: biochemical; conditions: 10 µM inhibitor, among 16-19, Figure 5c
T1 sequence (P48730 1-415 R168H): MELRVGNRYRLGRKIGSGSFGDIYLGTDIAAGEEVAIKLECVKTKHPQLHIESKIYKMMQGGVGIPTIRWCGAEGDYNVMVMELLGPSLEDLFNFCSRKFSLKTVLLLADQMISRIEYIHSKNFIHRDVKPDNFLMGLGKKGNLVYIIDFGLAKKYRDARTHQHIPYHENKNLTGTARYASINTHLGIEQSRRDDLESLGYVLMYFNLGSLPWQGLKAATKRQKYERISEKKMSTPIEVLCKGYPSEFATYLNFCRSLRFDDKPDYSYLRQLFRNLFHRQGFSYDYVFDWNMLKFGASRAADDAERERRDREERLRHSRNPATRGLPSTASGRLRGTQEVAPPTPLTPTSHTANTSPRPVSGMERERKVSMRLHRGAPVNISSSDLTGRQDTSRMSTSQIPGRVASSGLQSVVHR
Procedure: as §4, §5

[6] = test system: HeLa CK1δ−/− cells expressing CK1δ T67S; experiment: MTT viability assay, HeLa CK1δ−/− cells expressing CK1δ T67S; type: cell-based; conditions: 48 h
Procedure: as §1, with “For selection of stably transfected clones, transfected cells were grown in selective medium, containing 0.6 mg/mL of G-418 (Calbiochem-Merck Millipore, Darmstadt, Germany).” left out
as §3

[7] = molecular target: CK1ε (Homo sapiens, UniProt P49674); experiment: in vitro kinase assay, CK1ε; type: biochemical; conditions: 10 µM inhibitor, initial screening
Sequence of CK1ε (P49674 whole entry): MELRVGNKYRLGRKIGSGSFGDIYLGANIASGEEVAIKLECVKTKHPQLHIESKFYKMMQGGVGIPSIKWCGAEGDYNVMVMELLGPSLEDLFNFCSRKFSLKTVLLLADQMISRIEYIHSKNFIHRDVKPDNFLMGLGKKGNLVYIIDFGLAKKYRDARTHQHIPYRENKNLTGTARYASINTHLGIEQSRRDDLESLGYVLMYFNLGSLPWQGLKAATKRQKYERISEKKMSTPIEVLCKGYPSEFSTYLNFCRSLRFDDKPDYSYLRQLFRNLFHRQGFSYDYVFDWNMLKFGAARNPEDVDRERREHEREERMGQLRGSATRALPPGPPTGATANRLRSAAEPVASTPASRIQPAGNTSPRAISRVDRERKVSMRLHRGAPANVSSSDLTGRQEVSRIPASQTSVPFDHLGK

[8] = test system: HeLa CK1δ−/− cells expressing CK1δ R127Q; experiment: MTT viability assay, HeLa CK1δ−/− cells expressing CK1δ R127Q; type: cell-based; conditions: 48 h
Procedure: as §1, with “For selection of stably transfected clones, transfected cells were grown in selective medium, containing 0.6 mg/mL of G-418 (Calbiochem-Merck Millipore, Darmstadt, Germany).” left out
as §3

[9] = molecular target: CK1γ; experiment: in vitro kinase assay, CK1γ; type: biochemical; conditions: 10 µM inhibitor, initial screening
[10] = molecular target: CK1α (Homo sapiens, UniProt P48729); experiment: in vitro kinase assay, CK1α; type: biochemical; conditions: 10 µM inhibitor, initial screening
Sequence of CK1α (P48729 whole entry): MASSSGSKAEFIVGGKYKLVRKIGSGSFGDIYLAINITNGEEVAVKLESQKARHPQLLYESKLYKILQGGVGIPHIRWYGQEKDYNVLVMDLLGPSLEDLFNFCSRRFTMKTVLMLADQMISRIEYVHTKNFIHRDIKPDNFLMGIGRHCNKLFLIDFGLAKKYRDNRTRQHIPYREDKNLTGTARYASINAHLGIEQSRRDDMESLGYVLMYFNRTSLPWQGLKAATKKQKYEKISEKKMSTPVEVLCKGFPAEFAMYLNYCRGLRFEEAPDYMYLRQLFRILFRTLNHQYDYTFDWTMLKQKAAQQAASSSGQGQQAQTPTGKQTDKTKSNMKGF

[11] = molecular target: T2, CK1δ T67S (Homo sapiens, UniProt P48730, T67S); experiment: in vitro kinase assay, CK1δ mutant T67S; type: biochemical; conditions: 10 µM inhibitor, Figure 5a
T2 sequence (P48730 1-415 T67S): T1 sequence (P48730 1-415 R168H) with T67S, H168R
Procedure: as §4, §5

[12] = test system: SW620 colon cancer cells; experiment: MTT viability assay, SW620; type: cell-based, human; conditions: 48 h; for Reduction of cell viability, SW620: 10 µM, initial screening (Figure 10a)
Procedure: as §1, §2

[13] = test system: SW480 colon cancer cells; experiment: MTT viability assay, SW480; type: cell-based, human; conditions: 10 µM, 48 h, initial screening (Figure 10a)
Procedure: as §1, §2

[14] = test system: HT-29 colon cancer cells; experiment: MTT viability assay, HT-29; type: cell-based; conditions: 10 µM, 48 h, initial screening (Figure 10a)
Procedure: as §1, §2

[15] = test system: HCT-116 colon cancer cells; experiment: MTT viability assay, HCT-116; type: cell-based; conditions: 48 h, dose series (Figure S2)
Procedure: as §1, with “For selection of stably transfected clones, transfected cells were grown in selective medium, containing 0.6 mg/mL of G-418 (Calbiochem-Merck Millipore, Darmstadt, Germany).” left out
as §3

Row | Compound | Kinase activity of CK1δ in presence of inhibitor [3] | IC50 [3] | Kinase activity of CK1ε in presence of inhibitor [7] | Kinase activity of CK1γ in presence of inhibitor [9] | Reduction of cell viability, SW620 [12] | Reduction of cell viability, SW480 [13] | Reduction of cell viability, HT-29 [14] | Reduction of CK1α activity [10] | further results
1 | COc1ccc(-n2c(SCC(=O)Nc3nc4ccc(C(F)(F)F)cc4s3)nccc2=O)c(OC)c1 [Compound 18, 2-((3-(2,4-Dimethoxyphenyl)-4-oxo-3,4-dihydropyrimidin-2-yl)thio)-N-(6-(trifluoromethyl)benzo[d]thiazol-2-yl)acetamide] | strongly inhibited | 1.7 µM | strongly inhibited | not affected | – | – | – | – | EC50 ([1]; CK1, 0.313-70 µM, read-out: EC50 (CK1δ−/−), cell viability): 18.5 µM; Effects on cell viability of CK1δ R168H-expressing HeLa cells vs CK1δ WT-expressing cells ([2]; 10 μM): stronger effects; Cell viability of CK1δ-expressing cells (HeLa parental or CK1δ+/+) compared to CK1δ-deficient cells (HeLa CK1δ−/−) ([4]; 25 μM): more reduced; EC50 ([4]; CK1, 0.313-70 µM, read-out: EC50 (CK1δ+/+), cell viability): 7.4 µM; Effects on CK1δ R168H activity [5]: strongest effects; Effects on cell viability of CK1δ T67S-expressing HeLa cells vs CK1δ WT-expressing cells ([6]; 10 μM): stronger effects; Effects on cell viability of CK1δ R127Q-expressing HeLa cells vs CK1δ WT-expressing cells ([8]; 10 μM, difference not statistically significant): stronger effects; Kinase activity of CK1α in presence of inhibitor [10]: not affected; Inhibition of CK1δ T67S compared to wild type CK1δ [11]: slightly stronger
2 | COc1ccc(Cn2c(SCC(=O)Nc3nc4ccc(C(F)(F)F)cc4s3)nccc2=O)cc1 [Compound 20, 2-((3-(4-Methoxybenzyl)-4-oxo-3,4-dihydropyrimidin-2-yl)thio)-N-(6-(trifluoromethyl)benzo[d]thiazol-2-yl)acetamide] | strongly inhibited | 0.09 µM and 0.086 µM | strongly inhibited | not affected | about 60% | approximately 35% | approximately 35% | at least 50% | Dose-dependent effects on SW620 cell viability ([12]; 0.625 to 20 µM, MTT (Figure S2)): clear dose-dependent effects; EC50 ([12]; Homo sapiens, SW-620, 0.625-20 µM, MTT, read-out: EC50 (SW620), cell viability): 3 µM; Cell viability of HeLa CK1δ−/− compared to parental cells or HeLa CK1δ+/+ cells ([1]; 5 μM): significantly less affected; Cell viability of HeLa CK1δ−/− cells expressing CK1δ R168H vs CK1δ WT ([2]; 5 μM): no mutant-specific effects; Reduction of cell viability, HCT-116 ([15]; 0.625 µM): approximately 30%; Cell viability of HeLa CK1δ−/− cells expressing CK1δ T67S vs CK1δ WT ([6]; 5 μM): no mutant-specific effects; Cell viability of HeLa CK1δ−/− cells expressing CK1δ R127Q vs CK1δ WT ([8]; 5 μM): no mutant-specific effects
3 | O=C(CSc1nccc(=O)n1Cc1ccccc1F)Nc1nc2ccc(C(F)(F)F)cc2s1 [Compound 22] | strongly inhibited | 0.24 ± 0.04 µM | strongly inhibited | not affected | 25% | approximately 35% | approximately 35% | at least 50% | Reduction of cell viability, HCT-116 ([15]; 1.25 µM): approximately 30%
